# According to patent US10731222B2 (RNA Diagnostics Inc., priority 2013, dated 2020):
# Tests used:
# [1] = test system: A2780 ovarian cancer cells; test: RNA disruption in drug-treated A2780 cells (Agilent Bioanalyzer electropherogram, RDI); format: cell-based, human; conditions: for response of cells in culture to the agent: dose- and time-dependent; for effect of caspase inhibitor on docetaxel-induced RNA disruption: 10 uM inhibitor with 0.2 uM docetaxel
# Method: RNA was isolated from ovarian cancer cell line A2780 cells which had been treated with 10 μM docetaxel in 50% media or 20 μM epirubicin, each in 50% media. Cells were treated with the chemotherapeutic for 24 hours at 37° C. Isolated RNA was separated by microcapillary electrophoresis using the Agilent 2100 Bioanalyzer.
# Cells were plated and treated with docetaxel concentrations ranging from 0.001-40 μM for 24 to 72 hours to assess the effect on cell number, RNA content, and integrity (measured using a Bioanalyzer 2100 from Agilent Technologies, Inc.).
# A2780 cells treated for up to 72 hours with docetaxel at 0.005 uM and 0.2 uM, were analyzed for the amount of RNA per cell. RNA was isolated and electophoretically separated using an Agilent Bioanalyzer.
# RNA was isolated and electrophoretically separated on an Agilent Bioanalyzer. As shown in FIG. 24D bands appeared just below the 28S (e.g. intermediate) and 18S bands (e.g. low banding region) at 0.005 uM and peaked at 0.2 uM.
# A time course experiment was conducted in A2780 cells. Cells were treated for up to 72 hours with docetaxel at 0.005 uM and 0.2 uM. RNA was isolated and run on an Agilent Bioanalyzer.
# The effect of a caspase inhibitor on RNA integrity changes was next assessed. Cells were treated with or without docetaxel at a concentration of 0.2 uM in the presence or absence of the caspase inhibitor Q-DEVD-OPH (Biovision Laboratories) at a concentration of 10 uM.
# [2] = test system: docetaxel-resistant A2780DXL cells; test: Clonogenic assay, docetaxel-resistant cells; format: cell-based; conditions: clonogenic assay
# Source text: (§1) A docetaxel A2780 resistant cell line was made as described in Li et al., Int. J. Mol. Med 2004 14(20): 257-264.
# RDA like clonogenic assays can be used to identify drugs that are cytotoxic (FIG. 24C iv). […] The cell lines have widely differing sensitivity to docetaxel in a clonogenic assay, with IC50 values differing by over three orders of magnitude.
# [3] = test system: docetaxel-resistant A2780DXL cells; test: RNA disruption in docetaxel-resistant cells; format: cell-based; conditions: in combination with docetaxel
# Method: as §1
# A time course experiment was conducted. Sensitive parental and docetaxel resistant A2780 cells were treated with docetaxel for 24 hours. RNA was isolated and run on an Agilent Bioanalyzer.
# The a\Ability of RDA to detect potentiators of docetaxel (Dxl) sensitivity. […] Thus, RDA may be used to screen for potentiators of chemotherapy drug cytotoxicity.
# [4] = test system: Colon adenocarcinoma cells LS174T; test: RNA disruption in colon adenocarcinoma cells LS174T; format: cell-based; conditions: 24 hr
# Method: Colon adenocarcinoma cells LS174T were incubated with Sunitinib, a receptor tyrosine kinase inhibitor. RNA was isolated from the cells and analyzed using an Agilent Bioanalyzer.
# RNA was isolated from the cells and analyzed using an Agilent Bioanalyzer.
# [5] = test system: Colon adenocarcinoma cells SW480; test: RNA disruption in colon adenocarcinoma cells SW480; format: cell-based; conditions: 72 hr
# Method: Colon adenocarcinoma cells SW480 were incubated with Epirubicin, a DNA synthesis inhibitor. RNA was isolated from the cells and analyzed using an Agilent Bioanalyzer.
# [6] = test system: cytokeratin 18 (M30, M65); test: M30/M65 Apoptosense assay, Group 2; format: in vivo, human; conditions: 14 days after ZA; baseline 335.3 U/L; p=0.039
# Method: Blood samples were collected from patients at the same time-point as indicated for Group 2 into the K2EDTA anticoagulant tubes, and then centrifuged at 1,500 g for 10 min to obtain plasma. Levels of M30 and M65 were measured in blood samples drawn at 8 am before starting ZA administration and thereafter at 48 hours and at 14 days after the initial treatment (FIG. 9).
# M30 and M65 measurements were tested in triplicate accordingly to the manufacturers' instructions (PEVIVA AB, Bromma, Sweden) as previously described in detail.
# The M30 is a biomarker assay for the quantitative determination of caspase-cleaved cytokeratin 18 (CK18) released from apoptotic carcinoma cells into blood and may estimate the tumour response to the treatment. Total CK18 (cleaved and non cleaved) is detected by M65. The levels of M30 and M65 were determined on blood samples of metastatic breast cancer patients (Group 2) collected at baseline, at 48 hours and at 14 days after ZA administration at the same time point of CTCs evaluation to assess apoptosis and cell death induced by the treatment. […] M65 levels were statistically significant higher after drug administration (14 days) when compared to the baseline (370.69 U/L versus 335.3 U/L; range 174.2-1646.5 versus 113.7-596.4; p=0.039).
# [7] = cited from earlier work
# [8] = Treatment tolerability of single-dose ZA; format: in vivo, human
# Method: (§2) Patients received a single dose of 4 mg diluted in 100 ml saline, intravenously, in about 15 mins of ZA without any other active concomitant treatments (i.e chemotherapy or endocrine therapy) (Groups 1 and 2). In patients with locally advanced disease, the biological evaluations were performed at baseline on the diagnostic biopsy and repeated after 14 days from ZA administration on a second tru-cut biopsy (Group 1) whereas in patients with bone metastatic disease, CTCs counts along with serological markers were performed before ZA administration, at 48 hours and at 14 days after treatment (Group 2) (FIG. 9).
# Patients were evaluated by physical examination, and blood samples were obtained for laboratory analysis.
# [9] = test system: breast cancer T2-4, N 0-1, M0; test: Early response studies: RNA Disruption (RDI) 15 days after initiation of therapy; format: in vivo, human
# Source text: The Limit of Detection for RDI s RDI=0.3. RDI=1.5, 5 times the Level of Detection, was used as a provisional baseline cut off between nonresponders and responders.
# [10] = test system: locally advanced breast cancer; test: RNA Disruption Index (RDI) of tumour samples before and 14 days after ZA, Group 1; format: in vivo, human; conditions: 14 days after single ZA; baseline 0.63; 14 matched pairs; p<0.0076
# Method: Tumour samples were shipped in a RNA preservative to Rna Diagnostics (Sudbury, Canada) where they were sub-sectioned to reduce the amount of tissue for RNA isolation based on gross pathology. RNA was then isolated using the Qiagen miRNeasy kit from each portion of the tumour and the RNA analysed using an Agilent Bioanalyzer 2100. […] Mean RDI values were calculated for each tumour sample.
# [11] = test system: locally advanced breast cancer; test: Immunohistochemistry of tumour markers (Ki67, CD31, p53, bcl-2, caspase 3) before and 14 days after single-dose ZA, Group 1; format: in vivo, human
# Method: Enrolled patients received 4 mg single dose of ZA (Zometa®, Novartis, Milan, Italy) before starting any treatment (biological window of 14 days) (FIG. 9). Markers of tumor proliferation/death were tested immunohistochemically and at ATP and RNA level in tumour specimens obtained before and after ZA administration in those patients with locally advanced breast cancer (Group 1) and the count of circulating tumour cells (CTCs) by CellSearch System along with serological markers as marker of tumor dissemination were carried out in metastatic patients (Group 2).
# as §2, with “In” for “Patients received a single dose of 4 mg diluted in 100 ml saline, intravenously, in about 15 mins of ZA without any other active concomitant treatments (i.e chemotherapy or endocrine therapy) (Groups 1 and 2). In”
# Immunohistochemical evaluation was performed on formalin-fixed paraffin-embedded tumor samples obtained at diagnosis and at 14th days on tru-cut. ER, PgR, overexpression of HER2 and Ki67, CD31 with p53 and bcl-2 staining were performed at the Pathology Unit of the Azienda Ospedaliera-Istituti Ospitalieri of Cremona (Italy). The immunohistochemical methodology is fully described elsewhere. The Caspase 3 immunohistochemistry was performed at the Pathology Unit of Peter MacCallum Cancer Centre (Australia); the used methodology followed that reported by others evaluating protein expression in breast tumours.
# [12] = test system: circulating tumour cells (CTCs); test: Circulating tumor cells (CTCs) assay, CellSearch, Group 2; format: in vivo, human; conditions: for median CTC/M30+ve: basal 2
# Method: as §2
# The enumeration of CTC in whole blood was done by the CellSearch System according to manufacturers instruction as described by Cristofanilli et al.. The identification and count of CTCs was performed using the CellSearch Analyzer, a semi-automated fluorescence-based microscopy system that permits computer-generated reconstruction of cellular images. The criteria used are round or oval morphology, a DAPI positivity, positivity for cytokeratin and negative staining for CD45. Results are expressed as number of cells/7.5 ml of blood. Quality control was maintained via the CellSearch CTC Control Kit used to standardize reagents, instruments, and operator technique.
# To quantify the fraction of apoptotic CTC, M30-positive CTC were detected integrating CTC assay with a specific mAb (M30 PEVIVA AB, Bromma, Sweden), recognizing the M30 neoepitope of cytokeratin 18 (CK18), analyzed with the fourth filter of the CellSearch System; results were expressed as the total number of CTC and M30-positive CTC per 7.5 mL of blood as described elsewhere.
# [13] = test system: locally advanced breast cancer; test: ATP content of tumour biopsies (ATPlite luminescence), Group 1; format: in vivo, human; conditions: tru-cut after ZA; 230.93 at incisional biopsy; 24 matched pairs; p=0.79
# Method: ATP content was assayed as previously described using a luminescence assay system (ATPlite, PerkinElmer) according to manufacturing instructions. Briefly, frozen tumor biopsies were minced and homogenized in ice-cold lysis solution provided with the kit using a homogenizer. Membranes and cellular debris were eliminated by centrifuging at 12,000×g for 10 min at 4° C. Protein concentrations were determined by DC protein-assay (Bio-Rad Laboratories). Equal amounts of tissue proteins from each sample (30 μg/50 μl of lysis solution) were incubated with 50 μl of luciferine/luciferase substrate solution and analyzed for ATP content by using a Luminescence Counter (Enspire, PerkinElemer). ATP concentrations were calculated on the basis of an ATP standard-curve and expressed as pmol/mg protein.
molecule,measurement,setting,value
CC(=O)O[C@H]1C(=O)[C@@]2(C)[C@H]([C@H](OC(=O)c3ccccc3)[C@]3(O)C[C@H](OC(=O)[C@H](O)[C@@H](NC(=O)c4ccccc4)c4ccccc4)C(C)=C1C3(C)C)[C@]1(OC(C)=O)CO[C@@H]1C[C@@H]2O [paclitaxel],response of cells in culture to the agent,[1],RNA disruption
Cyclosporine A,effect on docetaxel sensitivity,[2],restores sensitivity to docetaxel
same,effect on docetaxel-induced RNA disruption (RDI),[3],restored docetaxel's ability to induce RNA disruption
Q-DEVD-OPH,effect of caspase inhibitor on docetaxel-induced RNA disruption,[1],reduces the loss of 28S and 18S bands at 72 hr
same,effect of caspase inhibitor on docetaxel-induced RNA disruption,[1]; listed as Q-DEVD-Oph,significantly reduced RNA disruption
CCN(CC)CCNC(=O)c1c(C)[nH]c(/C=C2\C(=O)Nc3ccc(F)cc32)c1C [Sunitinib],concentration at which RNA Disruption is evident,[4],54 mM
COc1cccc2c1C(=O)c1c(O)c3c(c(O)c1C2=O)C[C@@](O)(C(=O)CO)C[C@@H]3O[C@H]1C[C@H](N)[C@@H](O)[C@H](C)O1 [epirubicin],electropherogram pattern,"[1]; 20 μM in 50% media, 24 hours, 37° C.",intermediate bands between the 18S and 28S peaks
same,response of cells in culture to the agent,[1],RNA disruption
same,concentration at which RNA Disruption is evident,[5],0.5 mM
"O=P(O)(O)C(O)(Cn1ccnc1)P(=O)(O)O [ZA, zoledronic acid]",M65 level,[6],370.69 U/L
same,plasma concentration relative to Cmax,[7]; 24 h post-dose,< 1 % of Cmax
same,dose retained in the skeleton or in fat tissue,[7]; in vivo,60%
same,dose excreted unmetabolized in the urine,[7]; within 24 hours after administration,up to 41%
same,"levels of bone-turnover markers (calcium, PTH, BALP, VIT-D3(1-25))",[8]; in vivo,did not lead significant difference
same,osteonecrosis of the jaw or other significant adverse events,[8]; in vivo,No patient developed
same,tolerability,[8]; single 4 mg i.v. dose,well tolerated
same,mean serum creatinine level,[8]; with treatment,did not vary
same,Patients Responding (RDI above Baseline RDI = 1.5),[9],8 patients
same,"RDI Range, Responding Patients",[9],1.8-8.9
same,RDI level,[10],1.21
same,specimens with increased bcl-2,[11]; 1 of 31,3.2%
same,specimens with increased p53,[11]; 1 of 31,3.2%
same,specimens with decreased p53,[11]; 3 of 31,9.7%
same,patients with stable Ki67 expression,"[11]; 5 of 33 patients, 14 days",15.2%
same,patients with increase in Ki67 expression,"[11]; 6 of 33 patients, 14 days",18.2%
same,patients with decrease in Ki67 expression,"[11]; 22 of 33 patients, 14 days",66.6%
same,specimens with unchanged p53,[11]; 27 of 31,87.1%
same,specimens with decreased bcl-2,[11]; 30 of 31,96.8%
same,median Ki67,"[11]; 14 days after ZA infusion, basal 18%, n=33, p=0.0032",16%
same,bcl-2 expression (median),"[11]; 14 days, baseline 100%, p<0.00001",40%
same,median CD31 expression,"[11]; after treatment (14 days), basal 27%, p=0.0001",16%
same,median alive CTC,"[12]; 48 hours after ZA infusion, basal 12, p=0.0012",4 cells/7.5 ml of blood
same,median CTC/M30+ve,"[12]; 48 hours, p=0.7065",2 cells/7.5 ml of blood
same,median CTC/M30+ve,"[12]; 14 days, p=0.018",3 cells/7.5 ml of blood
same,average ATP value,[13],216.57 pmol/mg protein
N.N.O=C([O-])C1(C(=O)[O-])CCC1.[Pt+2] [carboplatin],response of cells in culture to the agent,[1],RNA disruption
